Reference: patent publication US20240150423A1, “GLP-1 ANALOGUE-MODIFIED DIMERS WITH DIFFERENT CONFIGURATIONS, PREPARATION METHOD THEREOF, AND APPLICATION THEREOF IN TREATMENT OF TYPE II DIABETES” (Nanjing Finepeptide Biopharmaceutical Co.,Ltd, priority 2019, published 2024)
Non-standard residues stand in square brackets, D forms with d. No end group written: not given here. βAla = NCCC(=O)O

System: Normal Kunming (KM) mice
Test: multiple OGTT (mOGTT): hypoglycemic duration after a single administration
Type: in vivo
Details: monomeric peptides, single injection at the same dose (1.126 nmol), subcutaneous
Description: • 1. Methods: Normal Kunming (KM) mice (purchased from Guangdong Animal Center) were used for oral glucose tolerance test (OGTT) to obtain the hypoglycemic activity and durability of drug. […] The blood glucose meter and blood glucose test paper were from Bayer […]. The average blood glucose of each group was used as an evaluation standard: When the average blood glucose of experimental group was higher than that of the NaCl control group for two times, the measurement stopped and the hypoglycemic period compared to the blank control group was the effective duration. • 2. Results • 2.1 single OGTTs: after a single administration, the mice were orally administered glucose once and measured the blood glucose from the tail blood at 0, 10, 20, 40, 60 and 120 min. […] The duration of each monomer group was about 1⁄2-1⁄4 of the duration of its corresponding dimer group. […] Therefore, the 2G3 peptide was selected for treating type II diabetes (T2D) in vivo and subsequent experiments.

Substance	Hypoglycemic
His-Ala-Glu-Gly-Thr-Phe-Thr-Cys-Asp-Val-Ser-Ser-Tyr-Leu-Glu-Gly-Gln-Ala-Ala-Lys[N-ϵ-(N-α-Palmitoyl-L-γ-glutamyl)]-Glu-Phe-Ile-Ala-Trp-Leu-Val-Arg-Gly-Arg-Gly-NH2 (HAEGTFTCDVSSYLEGQAAXEFIAWLVRGRG; palmitoyl-gamma-Glu on Lys; C-terminal amide; Sequence is synthesized; (20)..(20) Xaa is 26Lys[N-e-(N-a-palmitoyl-L-g-glutamyl)]; (31)..(31) N-terminal) [G8 series 57]	2 days
His-Ala-Glu-Gly-Thr-Phe-Thr-Ser-Asp-Val-Cys-Ser-Tyr-Leu-Glu-Gly-Gln-Ala-Ala-Lys[N-ϵ-(N-α-oleoyl-L-γ-glutamyl)]-Glu-Phe-Ile-Ala-Trp-Leu-Val-Arg-Gly-Arg-Gly-NH2 (HAEGTFTSDVCSYLEGQAAXEFIAWLVRGRG; oleoyl-γ-glutamyl on Lys; C-terminal amide; Sequence is synthesized; (20)..(20) Xaa is 26Lys[N-e-(N-a-oleoyl-L-g-glutamyl)]; (31)..(31) N-terminal) [G2 series 10]	5 days
His-βAib-Glu-Gly-Thr-Phe-Thr-Ser-Asp-Val-Cys-Ser-Tyr-Leu-Glu-Gly-Gln-Ala-Ala-Lys[N-ϵ-(N-α-oleoyl)]-Glu-Phe-Ile-Ala-Trp-Leu-Val-Arg-Gly-Arg-Gly-NH2 (HXEGTFTSDVCSYLEGQAAXEFIAWLVRGRG; βAib; oleoyl on Lys; C-terminal amide; Sequence is synthesized; (2)..(2) Xaa is bAib; (20)..(20) Xaa is 26Lys[N-e-(N-a-oleoyl-L-g-glutamyl)]; (31)..(31) N-terminal) [G4 series 30]	6 days
His-Ala-Glu-Gly-Thr-Phe-Thr-Ser-Asp-Val-Ser-Cys--Tyr-Leu-Glu-Gly-Gln-Ala-Ala-Lys[N-ϵ-(N-α-oleoyl-L-γ-glutamyl)]-Glu-Phe-Ile-Ala-Trp-Leu-Val-Arg-Gly-Arg-Gly-NH2 (HAEGTFTSDVSCYLEGQAAXEFIAWLVRGRG; oleoyl-γ-glutamyl on Lys; C-terminal amide; Sequence is synthesized; (20)..(20) Xaa is 26Lys[N-e-(N-a-oleoyl-L-g-glutamyl)]; (31)..(31) N-terminal) [G3 series 23]	7 days
His-βAla-Glu-Gly-Thr-Phe-Thr-Ser-Asp-Val-Ser-Cys-Tyr-Leu-Glu-Gly-Gln-Ala-Ala-Lys[N-ϵ-(N-α-Palmitoyl-L-γ-glutamyl)]-Glu-Phe-Ile-Ala-Trp-Leu-Val-Lys[N-ϵ-(N-α-Palmitoyl-L-γ-glutamyl)]-Gly-Arg-Gly-NH2 (HXEGTFTSDVSCYLEGQAAXEFIAWLVXGRG; not fully specified; beta-amino acid; two palmitoyl-gamma-Glu on Lys; amide; Sequence is synthesized; (2)..(2) Xaa is bAla; (20)..(20) Xaa is 26Lys[N-e-(N-a-palmitoyl-L-g-glutamyl)]; (28)..(28) Xaa is 26Lys[N-e-(N-a-palmitoyl-L-g-glutamyl)]; (31)..(31) N-terminal) [G5 series 44]	2 days
His-βAla-Glu-Gly-Thr-Phe-Thr-Ser-Asp-Val-Cys-Ser-Tyr-Leu-Glu-Gly-Gln-Ala-Ala-Lys-Glu-Phe-Ile-Ala-Trp-Leu-Val-Arg-βAla-Arg-NH2 (H[βAla]EGTFTSDVCSYLEGQAAKEFIAWLVR[βAla]R-NH2; not fully specified; printed as His-βAla-Glu-Gly-Thr-Phe-Thr-Ser-Asp-Val-Cys-Ser-Tyr-Leu-Glu-Gly-Gln-Ala-Ala-Lys-Glu-Phe-Ile-Ala-Trp-Leu-Val-Arg-βAla-Arg-NH2) [G2 series 19]	3 days

Same assay, conditions: single injection at the same dose (1.126 nmol), subcutaneous

Substance	Hypoglycemic duration
2G7 series 55: disulfide-linked homodimer of monomer SEQ ID NO: 55 (H[βAla]EGTFTSDVSCYLEGQAAKEFIAWLVR[βAla]R-NH2; also: disulfide-linked homodimer, disulfide at 12, other end not in the chain)	4 days
